Experimental data: patent publication US20200306283A1, “CANCER TREATMENT AND METASTASIS INHIBITION USING AN ANTI-CANCER STEM CELL AGENT IN COMBINATION WITH A NEU1 SIALIDASE INHIBITOR OR A CYTOKINE INHIBITOR AFTER PRIMARY CANCER TREATMENT” (priority 2016, published 2020)

What was measured:
[1] = system: xenograft tumors of PANC-1 cells; test: Fluorescence immunohistochemistry of E-cadherin and N-cadherin in PANC-1 xenograft tumors (FIG. 24); format: in vivo; conditions: immunocompromised mice
Procedure: Paraffin-embedded tumor sections (5 μm) on glass slides were processed from immunohistochemistry using conjugated E-cadherin and N-cadherin antibodies (see A of FIG. 24). Background control (CTL) sections were prepared without the antibodies. Images are representative of at least five fields of view from two tumor sections. (B). Each bar represents the mean (±standard error of the mean) corrected density of tumor staining. Abbrev.: C=cohort; M=mouse number. E- and N-cadherin expression in paraffin-embedded xenograft tumors of PANC-1 cells in immunocompromised mice using conjugated E- and N-cadherin antibodies was detected by fluorescence immunohistochemistry. […] Images are representative of at least five fields of view from two tumor sections, and each bar represents the mean±standard error of the mean corrected density of tumor staining.

HCT-15 cells = test: Cell subpopulations (CD44/CD24) in HCT-15 cell line after cytokine exposure, imaging flow cytometry; format: cell-based; parameters: unit not given here; conditions: HCT-15 cells after exposure to cytokines singly or in pairs
Procedure: Two authenticated colorectal carcinoma cell lines, HCT-15 and SW-620, were used to test the effect of different cytokine and cytokine cocktails, including IL-6, HGF, PGE-2, TGF-beta and MMP-9 alone or in a cocktail, on cell proliferation, EMT and cancer stem cell populations.
In order to evaluate stem cell populations, cells were synchronized by serum starvation for 72 hours before seeding in 24-well ultra low attachment plates at a density of 200,000 cells/well. Cells were then detached using trypsin EDTA and washed twice with PBS (without Calcium or Magnesium). A cell proliferation dye, eFluor 450 was used to label cells. Cells were grown with DMEM with high glucose and 2 mM Gluatmine without FBS in the presence of selected cytokines and or cytokine cocktails over a period of 72 hrs.
Cells that were grown in 5% serum were stained with the following antibody cocktails: CD24FITC, CD44PE and CD24FITC, CD133PE. Cells were also stained with a fixable live/dead efluor dye 506 to exclude dead cells. In parallel, cells were grown in the presence of 5% serum to evaluate CSC markers.
(§1) Cells were fixed in 1% Paraformaldehyde for 15 minutes at room temperature and run on Flowsight using 2 lasers (488 nm at 60 mW and 405 nm at 30 mW). For cell lines, 100,000 events were collected whilst for enriched CTCs all events were collected until the sample finished.
Flow cytometry data was analysed using IDEAS software. Double events, out of focus events, CD45PercPCy5.5 positive cells (in case of enriched CTCs), dead cells and non-nucleated events were eliminated from the fluorescence analysis of the cell population. FIG. 2 depicts scatterplots of flow cytometry experiments showing the enriched CTCs stained with an antibody containing CD44 after treatment with various cytokines and cytokine cocktails. Hoescht 33258 dye was used to stain nuclei in the case of the HCT-15 cell line and enriched CTCs. All experiments were stained with a fixable live/dead dye eFluor 506 to exclude dead cells.
To evaluate which cocktail combinations were most likely involved in cell proliferation of presumed quiescent stem cells or de-differentiated stem cell-like cells, four cytokines, IL-6, HGF, PGE-2 and TGF-beta were added singly or in pairs to HCT-15 cells. Results of combinations that influenced cell proliferation of HCT-15 cells in culture are presented. […] FIG. 4 depicts cell proliferation of subpopulations in the HCT-15 cell line after exposure to various cytokines and cytokine cocktails.

[2] = system: enriched circulating tumour cells from a patient with colorectal cancer; test: Cultured enriched CTCs from a colorectal cancer patient treated with IL-6, IL-8 or PDGFBB (EpCAM, CD133, Lgr5 flow cytometry); format: cell-based, human
Text: A blood sample was collected from a patient with colorectal cancer six days after surgery. Blood samples were enriched for CTCs using RosetteSep CD 56 kit according to standard protocol. Prior to cell culture, cells were stained with the following antibody cocktail: EpCAM A488, CD133PE, CD 45 PerCP Cy5.5, and Lgr5-PE-Vio770. Cells were either cultured in low attachment well plates without cytokines (control cells) or with three different cytokines (IL-6, IL-8 or PDGFBB).
Flow cytometry data was analysed using IDEAS software. Double events, out of focus events, CD45PercPCy5.5 positive cells, dead cells and non-nucleated events were eliminated from the fluorescence analysis of the cell population. Hoescht 33258 dye was used to stain nuclei of enriched CTCs. All experiments were stained with a fixable live/dead dye eFluor 506 to exclude dead cells.

[3] = system: enriched circulating tumour cells from a patient with metastatic prostate cancer; test: Cell proliferation / cancer stem cell markers (EpCAM, CD44, CD133) in enriched CTCs cultured with cytokine cocktails; format: cell-based, human
Procedure: as §1
Flow cytometry data was analysed using IDEAS software. Double events, out of focus events, CD45PercPCy5.5 positive cells (in case of enriched CTCs), dead cells and non-nucleated events were eliminated from the fluorescence analysis of the cell population. FIG. 2 depicts scatterplots of flow cytometry experiments showing the enriched CTCs stained with an antibody containing CD44 after treatment with various cytokines and cytokine cocktails.
In order to determine if selected cytokines influence cell proliferation of circulating tumour cells (CTCs), whole blood was collected from a patient with metastatic prostate cancer. Circulating tumour cells were enriched from whole blood using RosetteSep CTC Enrichment cocktail. Briefly, samples of whole blood were incubated with RosetteSep (anti CD 56 for 20 minutes at room temperature). Phosphate buffered saline containing 2% Fetal Bovine Serum was added to the samples and layered on a Ficoll Paque gradient. After centrifugation, the supernatant which contained CTCs was washed twice with PBS containing 2% FBS. Equal volumes of the cell suspension were seeded into a 24-well ultra-low attachment polystyrene plate. […] FIG. 3 depicts scatterplots of flow cytometry experiments enriched CTCs stained with an antibody containing CD133 after treatment with various cytokines and cytokine cocktails.
FIG. 6 depicts cell proliferation of subpopulations in cultured CTCs after exposure to various cytokines and cytokine cocktails. Cells were stained using an antibody containing CD44 PE.
Cells were stained using an antibody containing CD133 PE.

SW-620 cells = SW-620 cells treated with cytokines with or without Irinotecan, flow cytometry for stem cell markers and apoptosis; format: cell-based, human; conditions: SW-620, cytokines 24 hours then 2 μM Irinotecan 36 hours; zero in non-treated control cells
Procedure: SW-620 cells, a human colorectal adenocarcinoma cell line, were treated with cytokines alone or in combination including IL-6, TGF-beta, HGF, PGE-2, IL-6+PGE-2 and TGF-beta+HGF for 24 hours and compared to untreated SW-620 cells as control. Some treated and untreated SW-620 cells were then exposed to 2 μM Irinotecan for 36 hours at which point cells were harvested for flow cytometry to assess for stem cell markers and markers of apoptosis. The percentage of CD44+CD133− cells following treatment with various cytokine and cytokine cocktails is depicted in FIG. 10. Compared to non-cytokine treated cells, combinations with IL-6+PGE-2, and TGF-beta+HGF increased the number and percentage of cells that were CD44+CD133− as shown in FIG. 10 (stem cells). FIG. 11 depicts the percentage of CD44+CD133− cells following treatment with various cytokines and Irinotecan. […]
Additionally, the percentage of CD44-CD133+ cells following treatment with various cytokines and cytokines cocktails was determined as depicted in FIG. 16. The percentage of CD44-CD133+ cells following treatment with various cytokines and Irinotecan was measured as depicted in FIG. 17. The percentage of CD44-CD133+ cells following treatment with various cytokine cocktails and Irinotecan was measured as depicted in FIG. 18. […]

[4] = cultured CTCs from colorectal cancer patient
[5] = cell culture period 8 days, CD44PE antibody cocktail

Molecule: Nc1ccn([C@@H]2O[C@H](CO)[C@@H](O)C2(F)F)c(=O)n1 [Gem, gemcitabine]
- N-cadherin expression in tumor tissue [1]: remained consistent

Molecule: IL6: cytokine Interleukin 6 added to cancer cells in culture
- CD24 + CD44− cell subpopulation (HCT-15 cells): 49.1
- CD44 + CD24+ cell subpopulation (HCT-15 cells): 5.63
- CD44 + CD24− cell subpopulation (HCT-15 cells): 1.35
- CD44 − CD24− cell subpopulation (HCT-15 cells): 43.2
- EpCAM + CD133+ cell subpopulation [2, 4]: 0.1 percentages of gated subpopulations
- EpCAM + CD133− cell subpopulation [2, 4]: 2.98 percentages of gated subpopulations
- EpCAM − CD133+ cell subpopulation [2, 4]: 0.12 percentages of gated subpopulations
- EpCAM − CD133− cell subpopulation [2, 4]: 90.5 percentages of gated subpopulations
- EpCAM+CD133− subpopulation (cancer stem cell fraction) ([2]; cultured CTCs, colorectal cancer patient, 0.05% before culture, 2% control, listed as IL-6): significantly increased
- percentage of cells positive for both EpCAM and CD44 ([3]; 8 days culture, CD44PE antibody cocktail): highest
- EpCAM-CD44+ cell sub-population ([3]; 8 days culture, no serum, CD44PE antibody cocktail): 6.14 % gated
- EpCAM + CD133+ cell subpopulation ([3]; CD133 PE antibody cocktail): 23.5 percentages of gated subpopulations
- EpCAM + CD133− cell subpopulation ([3]; CD133 PE antibody cocktail): 0 percentages of gated subpopulations
- EpCAM − CD133+ cell subpopulation ([3]; CD133 PE antibody cocktail): 74.7 percentages of gated subpopulations
- EpCAM − CD133− cell subpopulation ([3]; CD133 PE antibody cocktail): 1.46 percentages of gated subpopulations
- EpCAM + CD44+ cell subpopulation [3, 5]: 35.6 percentage of gated cells
- EpCAM + CD44− cell subpopulation [3, 5]: 2.66 percentage of gated cells
- EpCAM − CD44+ cell subpopulation [3, 5]: 6.14 percentage of gated cells
- EpCAM − CD44− cell subpopulation [3, 5]: 55 percentage of gated cells
- percentage of CD44+CD133− stem cells (SW-620 cells): enriched
